Results reported in the OPERA property sets (Mansouri et al. 2018).

Compound NC1(C(=O)O)CC1 has a logP of -2.78.
Work on NCCC(=O)O yielded a logP of -3.05.
Compound CCC(N)C(=O)O (stereo not drawn) has a logP of -2.54.
CN(C)CC(=O)O gave a logP of -2.91.
NC1(C(=O)O)CCCCC1 gave a logP of -1.87.
Compound NCCCCCCCC(=O)O has a logP of -2.55.
Work on O=C(O)C1CCCNC1 (stereo not drawn) yielded a logP of -2.89.
Compound O=C(O)C1CCN1 (stereo not drawn) has a logP of -2.84.
In the case of O=C(O)C1CCCCN1 (stereo not drawn), the logP is reported as -2.31.
Compound O=C(O)CCN1CCCCC1 has a logP of -2.45.
Compound NC1(C(=O)O)CCCC1 has a logP of -2.28.
In the case of NCCCCCCC(=O)O, the logP is reported as -3.03.
For O=C(O)C1CCNCC1, the logP was -3.05.
